Test results as given in patent publication US20030065039A1, “Biologically active 1,3-bis-aromatic-prop-2-en-1-ones, 1,3-bis-aromatic-propan-1-ones, and 1,3-bis-aromatic-prop-2-yn-1-ones” (Statens Serum Institute, priority 1997, published 2003).

Experiments:
Format in all cases: cell-based
IL-1β = experiment: Intracellular cytokine staining in stimulated human mononuclear cells; conditions: 25 μg/ml compound
Method: (§1) Therefore, experiments were performed to examine the effect of Licochalcone A and SBC-35ma on secretion of TNF-α from the stimulated cells. These experiments included detection of the cytokines in the cell lysate by ELISA and staining of the intracellular cytokines by using monoclonal antibodies against these cytokines and cytokine receptors.
(§2) Table 3. Effect of Licochalcone A and SBC-35ma on the presence of intracellur cytokines in the human peripheral blood mononuclear cells stimulated either with a malarial exoantigen SPAG (diluted 1:12.5) or bacterial LPS (diluted 1:1000). The cells were preincubated with 25 μg/ml of each of the compounds for 2 hours and then incubated in the presence of antigens at 37° C. overnight. The cells were permeabilized and then fixed in paraformaldehyde Cytokine specific monoclonal antibodies were used for the detection of positive cells for each cytokine. Data are presented as percentages of positive cells for each cytokine.

IL-2 = experiment: as above; conditions: 25 μg/ml compound
Method: as §1, §2

IL-6 = experiment: as above; conditions: 25 μg/ml compound
Method: as §1, §2

TNF-α = experiment: as above; conditions: 25 μg/ml compound
Method: as §1, §2

IL-4 = experiment: as above; conditions: 25 μg/ml compound
Method: as §1, §2

IL-1α = experiment: as above; conditions: 25 μg/ml compound, 2 hours preincubation
Method: as §1, §2

IL-1ra = experiment: as above; conditions: 25 μg/ml compound
Method: as §1, §2

Vero cell cultures = experiment: Cytotoxicity in Vero cell cultures; conditions: Vero cells; values given as fractions, footnote a not given
Text: In the following is reported the results from a Vero cell culture infected with different viruses. The cell culture used as well as the methods applied are well known to a person skilled in the art.

[1] = system: cytomegalovirus AD-169 strain; experiment: Activity against cytomegalovirus in HEL cells (plaque formation); conditions: virus plaque formation reduced by 50%, 100 PFU, values given as fractions
Method: (§3) IC50 values are determined by the virus plaque formation and/or the virus cytopathic assay using standard methods well-known in the art.

[2] = system: cytomegalovirus Davis strain; experiment: as above; conditions: virus plaque formation reduced by 50%, 100 PFU, values given as fractions
Method: as §3

SMILES | percentages of positive cells for IL-1β (IL-1β; LPS 1:1000, LPS alone 9.1) [%] | percentages of positive cells for IL-1β (IL-1β; SPAG 1:12.5, SPAG alone 13) [%] | percentages of positive cells for IL-2 (IL-2; LPS 1:1000, LPS alone 2.0) [%] | percentages of positive cells for IL-2 (IL-2; SPAG 1:12.5, SPAG alone 3.1) [%] | percentages of positive cells for IL-6 (IL-6; LPS 1:1000, LPS alone 4.3) [%] | percentages of positive cells for IL-6 (IL-6; SPAG 1:12.5, SPAG alone 5.6) [%] | percentages of positive cells for TNF-α (TNF-α; LPS 1:1000, LPS alone 0.30) [%] | percentages of positive cells for TNF-α (TNF-α; SPAG 1:12.5, SPAG alone 0.96) [%] | percentages of positive cells for IL-4 (IL-4; LPS 1:1000, LPS alone 0) [%] | percentages of positive cells for IL-4 (IL-4; SPAG 1:12.5, SPAG alone 0) [%] | percentages of positive cells for IL-1α (IL-1α; LPS 1:1000, LPS alone 13) [%] | percentages of positive cells for IL-1α (IL-1α; SPAG 1:12.5, SPAG alone 11) [%] | percentages of positive cells for IL-1ra (IL-1ra; LPS 1:1000, LPS alone 5.1) [%] | percentages of positive cells for IL-1ra (IL-1ra; SPAG 1:12.5, SPAG alone 6.6) [%] | Minimum Cytotoxic Concentration (Vero cell cultures) | Antiviral activity IC50, AD-169 strain, Assay 1 [1] | Antiviral activity IC50, Davis strain, Assay 1 [2]
C=CC(C)(C)c1cc(/C=C/C(=O)c2ccc(O)cc2)c(OC)cc1O [Licochalcone A] | 12 | 13 | 3.6 | 5.2 | 6.7 | 6.2 | 0.70 | 1.0 | 0 | 0.69 | 15 | 9.1 | 7.6 | 2.9 | <1/100 | 1/15000 | 1/50000
C=CCOc1ccc(C(=O)/C=C/c2cc(OC)cc(OC)c2)cc1 [SBC-35ma, 3,5-dimethoxy-4′-allyloxychalcone] | 0 | 0 | 0 | 0 | 0 | 0 | 0 | 0 | 0 | 0 | 0 | 0 | 0.78 | 0.14 | <1/100 | <1/60 | <1/60
